# Measured values from ChEMBL document CHEMBL1201862, “PubChem BioAssay data set” (2004).
# Activity calls are given as the source filed them.
# Assays:
# [1] = biological target: T1, Melanin-concentrating hormone receptor 1 (Homo sapiens, UniProt Q99705); test: Fluorescence-based counterscreen for antagonists of the G-protein coupled receptor 7 (GPR7): cell-based high throughput dose response assay to identify antagonists of the melanin-concentrating hormone receptor 1 (MCHR1).; assay type: functional
# T1 sequence (Q99705 whole entry): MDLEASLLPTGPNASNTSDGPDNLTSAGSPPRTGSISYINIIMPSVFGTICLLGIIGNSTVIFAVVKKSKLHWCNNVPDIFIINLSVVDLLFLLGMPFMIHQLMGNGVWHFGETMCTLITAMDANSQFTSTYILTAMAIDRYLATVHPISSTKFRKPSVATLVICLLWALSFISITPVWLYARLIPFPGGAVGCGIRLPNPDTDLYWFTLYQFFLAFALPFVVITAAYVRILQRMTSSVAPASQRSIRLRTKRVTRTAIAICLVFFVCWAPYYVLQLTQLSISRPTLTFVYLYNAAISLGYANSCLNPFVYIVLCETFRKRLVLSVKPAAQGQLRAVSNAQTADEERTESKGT
# [2] = biological target: T1, Melanin-concentrating hormone receptor 1; test: Late-stage fluorescence-based counterscreen for antagonists of the G-protein coupled receptor 7 (GPR7): cell-based dose response assay to identify antagonists of the melanin-concentrating hormone receptor 1 (MCHR1). [Related pubchem assays (depositor defined):AID1861, AID1880, AID1952, AID2148, AID2251, AID2257, AID485339]; assay type: functional
# [3] = biological target: Neuropeptides B/W receptor type 1 (Homo sapiens, UniProt P48145); test: human NPBW1 receptor blockade, IC50 – cell-based, fluorescence, dose response, late-stage follow-up (AID 463251); assay type: functional
# Sequence of Neuropeptides B/W receptor type 1 (P48145 whole entry): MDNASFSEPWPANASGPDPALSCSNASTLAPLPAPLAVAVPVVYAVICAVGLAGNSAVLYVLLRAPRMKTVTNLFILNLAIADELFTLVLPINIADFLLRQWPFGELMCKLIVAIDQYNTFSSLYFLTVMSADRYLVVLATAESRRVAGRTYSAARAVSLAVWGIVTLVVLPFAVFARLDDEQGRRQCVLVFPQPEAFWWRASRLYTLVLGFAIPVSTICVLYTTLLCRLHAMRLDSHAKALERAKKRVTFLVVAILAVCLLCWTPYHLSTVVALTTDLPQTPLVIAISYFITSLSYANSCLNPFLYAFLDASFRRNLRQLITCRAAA
# X-box-binding protein 1 = X-box-binding protein 1 (Homo sapiens, UniProt P17861); assay type: functional, Cricetulus griseus;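 note: confirmatory dose-response counter-screen serving a CHOP assay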
# Sequence of X-box-binding protein 1 (P17861 whole entry): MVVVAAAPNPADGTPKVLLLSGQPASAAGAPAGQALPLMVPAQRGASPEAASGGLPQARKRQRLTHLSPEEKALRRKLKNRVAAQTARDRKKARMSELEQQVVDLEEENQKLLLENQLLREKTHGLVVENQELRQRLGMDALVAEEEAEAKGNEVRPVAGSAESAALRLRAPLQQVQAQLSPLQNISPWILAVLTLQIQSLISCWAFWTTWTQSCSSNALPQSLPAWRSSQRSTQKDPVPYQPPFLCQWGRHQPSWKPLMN
# [4] = biological target: T2, Delta-type opioid receptor (Homo sapiens, UniProt P41143); test: delta opioid receptor blockers – image-based, SAR follow-up (AID 2357); assay type: functional
# T2 sequence (P41143 whole entry): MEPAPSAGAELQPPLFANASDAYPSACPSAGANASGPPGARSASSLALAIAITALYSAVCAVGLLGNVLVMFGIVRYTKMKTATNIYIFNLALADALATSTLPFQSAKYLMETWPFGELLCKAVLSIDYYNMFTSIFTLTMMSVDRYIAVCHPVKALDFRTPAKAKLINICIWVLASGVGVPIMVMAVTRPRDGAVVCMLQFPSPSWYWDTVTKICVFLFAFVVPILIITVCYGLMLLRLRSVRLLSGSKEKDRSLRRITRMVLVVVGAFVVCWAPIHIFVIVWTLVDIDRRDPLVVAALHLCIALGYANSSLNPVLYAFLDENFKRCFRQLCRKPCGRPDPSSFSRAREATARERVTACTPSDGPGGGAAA
# [5] = biological target: T3, Kappa-type opioid receptor (Homo sapiens, UniProt P41145); test: kappa opioid receptor blockers, cell-based, luminescence, beta-arrestin, SAR follow-up (AID 2285); assay type: functional
# T3 sequence (P41145 whole entry): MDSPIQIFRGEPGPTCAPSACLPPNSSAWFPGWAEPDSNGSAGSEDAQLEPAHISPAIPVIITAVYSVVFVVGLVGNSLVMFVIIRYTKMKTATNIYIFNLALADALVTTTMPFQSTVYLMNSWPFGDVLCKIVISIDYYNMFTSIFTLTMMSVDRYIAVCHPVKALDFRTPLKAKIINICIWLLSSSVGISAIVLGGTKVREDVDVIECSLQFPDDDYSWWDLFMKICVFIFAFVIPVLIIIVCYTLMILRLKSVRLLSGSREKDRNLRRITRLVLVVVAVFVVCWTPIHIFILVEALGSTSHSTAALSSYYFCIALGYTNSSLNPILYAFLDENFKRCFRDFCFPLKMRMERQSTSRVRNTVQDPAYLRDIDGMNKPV
# [6] = biological target: T3, Kappa-type opioid receptor; test: kappa opioid receptor activation potency – imaging, image-based, SAR follow-up (AID 2359); assay type: functional
# [7] = biological target: T3, Kappa-type opioid receptor; test: kappa opioid receptor blockers, image-based, SAR follow-up (AID 2348); assay type: functional
# Mu-type opioid receptor [8] = biological target: T4, Mu-type opioid receptor (Homo sapiens, UniProt P35372); test: mu opioid receptor activators, image-based, SAR follow-up (AID 2352); assay type: functional
# T4 sequence (P35372 whole entry): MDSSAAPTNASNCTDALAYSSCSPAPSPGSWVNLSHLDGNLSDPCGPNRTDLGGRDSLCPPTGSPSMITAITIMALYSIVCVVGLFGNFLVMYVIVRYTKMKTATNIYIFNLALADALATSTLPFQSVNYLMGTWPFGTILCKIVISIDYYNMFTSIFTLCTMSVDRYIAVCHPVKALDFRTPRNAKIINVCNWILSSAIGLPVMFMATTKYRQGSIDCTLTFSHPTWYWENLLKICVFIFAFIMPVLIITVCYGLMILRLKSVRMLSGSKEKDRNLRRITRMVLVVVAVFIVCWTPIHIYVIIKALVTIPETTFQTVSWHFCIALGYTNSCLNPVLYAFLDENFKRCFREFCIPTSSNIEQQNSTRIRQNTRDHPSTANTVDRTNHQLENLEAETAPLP
# [9] = biological target: T2, Delta-type opioid receptor; test: DOR agonists, SAR follow-up, image-based (AID 2370); assay type: functional
# Mu-type opioid receptor [10] = biological target: T4, Mu-type opioid receptor; test: mu opioid receptor blockers – image-based, SAR follow-up (AID 2420); assay type: functional;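 note: compounds added before stimulation of receptor with agonist DAMGO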
# cells = assay type: functional
# [11] = biological target: NACHT, LRR and PYD domains-containing protein 3 (Homo sapiens, UniProt Q96P20); test: NALP3 inhibitors in yeast, dose response, luminescent (AID 488799); assay type: functional
# Sequence of NACHT, LRR and PYD domains-containing protein 3 (Q96P20 whole entry, the tested form may be a part): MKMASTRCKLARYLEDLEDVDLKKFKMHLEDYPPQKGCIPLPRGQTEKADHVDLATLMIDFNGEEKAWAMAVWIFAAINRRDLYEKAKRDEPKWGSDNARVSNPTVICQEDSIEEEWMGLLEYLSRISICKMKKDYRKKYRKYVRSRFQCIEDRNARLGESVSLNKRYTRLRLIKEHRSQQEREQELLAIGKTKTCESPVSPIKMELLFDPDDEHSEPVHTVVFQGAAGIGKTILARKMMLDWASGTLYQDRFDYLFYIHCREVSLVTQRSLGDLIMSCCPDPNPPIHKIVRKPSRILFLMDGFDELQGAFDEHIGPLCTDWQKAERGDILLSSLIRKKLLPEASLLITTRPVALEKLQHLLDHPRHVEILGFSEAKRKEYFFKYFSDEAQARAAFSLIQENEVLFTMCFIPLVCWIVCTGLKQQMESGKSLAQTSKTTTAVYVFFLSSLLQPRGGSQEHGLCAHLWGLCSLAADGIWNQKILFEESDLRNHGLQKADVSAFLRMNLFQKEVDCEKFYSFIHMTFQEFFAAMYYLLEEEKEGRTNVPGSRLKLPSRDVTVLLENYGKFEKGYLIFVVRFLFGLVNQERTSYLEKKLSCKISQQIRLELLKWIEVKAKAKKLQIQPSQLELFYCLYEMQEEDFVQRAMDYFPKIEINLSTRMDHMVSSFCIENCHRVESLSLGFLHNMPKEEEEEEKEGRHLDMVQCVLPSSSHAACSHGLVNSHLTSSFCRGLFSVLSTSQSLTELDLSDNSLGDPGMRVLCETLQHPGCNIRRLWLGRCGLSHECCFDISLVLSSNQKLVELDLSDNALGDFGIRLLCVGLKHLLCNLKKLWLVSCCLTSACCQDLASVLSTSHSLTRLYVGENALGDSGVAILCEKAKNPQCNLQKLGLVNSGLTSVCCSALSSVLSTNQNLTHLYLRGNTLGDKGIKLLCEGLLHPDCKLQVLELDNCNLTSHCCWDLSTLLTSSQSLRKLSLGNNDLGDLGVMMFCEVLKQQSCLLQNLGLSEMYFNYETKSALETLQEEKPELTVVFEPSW
# [12] = THP-1 cell cytotoxicity, dose response, cytotoxicity control for non-replicating M. tuberculosis project (AID 489025); assay type: functional
# [13] = Vero E6 cell cytotoxicity, dose response, cytotoxicity control for non-replicating M. tuberculosis project, secondary assay (AID 492998); assay type: functional, VeroE6; details: Vero C1008
structure (smiles),measurement,setting,value
COC(=O)[C@@H](Cc1c[nH]c2ccccc12)NC(=O)CCC(=O)c1ccc(Br)cc1,IC50,[1],24.5 µM (not active)
COc1cc(OC)cc(Oc2c(Cl)cnn(-c3ccc(C(C)C)cc3)c2=O)c1,IC50,[2],10.5 µM (inactive)
same,IC50,[3],8.2 µM (active)
Cc1sc2ncnc(N3CCCCC3C)c2c1C (stereo not given),Absolute IC50 (XBP1),X-box-binding protein 1,10 µM
O=C(c1ccc(CNS(=O)(=O)c2ccccc2)cc1)N1CCN(Cc2ccccc2)CC1,IC50,[4],> 32 µM (inactive)
same,IC50,[5],> 10 µM (inactive)
same,EC50,[6],> 32 µM (inactive)
same,IC50,[7],> 32 µM (inactive)
same,EC50,Mu-type opioid receptor [8],> 32 µM (inactive)
same,EC50,[9],> 32 µM (inactive)
same,IC50,Mu-type opioid receptor [10],> 32 µM (inactive)
O=c1c2cc(Cl)ccc2nc(-c2ccc([N+](=O)[O-])cc2)n1O,IC50,cells,17.8 µM (active)
same,IC50,[11],6.6 µM (active)
same,CC50,[12],22.6 µM (active)
same,CC50,[13],17.3 µM (active)
